Values joined by “and” are separate entries in the source; they are usually repeats but may differ in a detail not shown here. Identical values can stand only once.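 Following 48 hours of exposure in 96-well plates, responses at five concentrations were used to interpolate endpoints linearly. GI50 is the concentration that inhibits growth by half. Definition used: TGI = concentration required for complete inhibition of growth.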
Assays:
Experiment in all cases: growth of human tumour cells (NCI), 48 h
DU-145 prostate = system: DU-145 prostate
RPMI-8226 leukemia = system: RPMI-8226 leukemia
A498 renal = system: A498 renal
HOP-62 NSCLC = system: HOP-62 NSCLC
NCI-H522 lung = system: NCI-H522 lung
SF-295 CNS = system: SF-295 CNS
CCRF-CEM leukemia = system: CCRF-CEM leukemia
MCF7 breast = system: MCF7 breast
LOX IMVI melanoma = system: LOX IMVI melanoma
M14 melanoma = system: M14 melanoma

SMILES	GI50 (DU-145 prostate)	TGI (DU-145 prostate)	GI50 (RPMI-8226 leukemia)	TGI (RPMI-8226 leukemia)	GI50 (A498 renal)	TGI (A498 renal)	GI50 (HOP-62 NSCLC)	TGI (HOP-62 NSCLC)	GI50 (NCI-H522 lung)	TGI (NCI-H522 lung)	GI50 (SF-295 CNS)	TGI (SF-295 CNS)	GI50 (CCRF-CEM leukemia)	TGI (CCRF-CEM leukemia) [µM]	GI50 (MCF7 breast)	TGI (MCF7 breast)	GI50 (LOX IMVI melanoma)	TGI (LOX IMVI melanoma)	GI50 (M14 melanoma)	TGI (M14 melanoma)
O=C1CC/C(=C\COc2ccc3ccc(=O)oc3c2)O1	1.89 µM	14.1 µM	1070 nM	17.3 µM	16.8 µM	44 µM	17.6 µM	38.2 µM	1760 nM	5.83 µM	43.5 µM	> 100 µM	2.42 µM	13.6	3.61 µM	33.8 µM	6.96 µM	20.6 µM	3.28 µM	13.9 µM
CCC(=O)c1ccc2c(c1)N(CCCN1CCN(CCO)CC1)c1ccccc1S2	15.4 µM	28.9 µM	8820 nM	27.6 µM	8.33 µM	22.3 µM	16.2 µM	30.3 µM	15900 nM	32.4 µM	12.2 µM	25.9 µM	9.67 µM	27.9	12.4 µM	26.9 µM	11.1 µM	26.5 µM	2.22 µM	4.63 µM
COc1ccc(-c2cc(-c3nnc(SCC(=O)Nc4ccc(C(C)=O)cc4)o3)c3ccccc3n2)cc1	> 100 µM	> 100 µM	> 100000 nM	> 100 µM	24.8 µM	72.7 µM	15.7 µM	58.6 µM	30200 nM	> 100 µM	26.4 µM	> 100 µM	> 100 µM	> 100	> 100 µM	> 100 µM	73.7 µM	> 100 µM	> 100 µM	> 100 µM
Cc1ccccc1C(C(=O)NC1CCCCC1)N(C(=O)Cn1ccnc1C)c1cccc(F)c1 (centres undefined)	> 76.6 µM	> 100 µM	> 100000 nM	> 100 µM	27.1 µM	> 83.9 µM	> 60.4 µM	> 100 µM	> 100000 nM	> 100 µM	28.8 µM	> 65.6 µM	> 100 µM	> 100	> 74 µM	> 100 µM	44 µM	> 100 µM	> 100 µM	> 100 µM
Cc1cc(NC(=O)NC(=O)c2ccccc2NC(=O)CN)ccc1Oc1ncc(Br)cn1	0.342 µM	20.1 µM and 15.9 µM	306 nM	57.1 µM and > 100 µM	< 0.01 µM	–	0.47 µM	4.18 µM and 22.3 µM	269 nM and 96 nM	2.24 µM and 0.472 µM	< 0.01 µM	–	0.0476 µM	–	0.174 µM	23.3 µM and > 100 µM	0.624 µM	34.1 µM and > 100 µM	0.117 µM	–
CC1(C)Cc2c(Br)c(Br)c(Br)c(OCC(O)CN3CCOCC3)c2O1 (centres undefined)	13.4 µM	26.2 µM	3820 nM	18.7 µM	12.6 µM	26.4 µM	12.2 µM	27.3 µM	12400 nM	26.7 µM	5.17 µM	20.3 µM	10.2 µM	24.1	13.4 µM	29 µM	13.6 µM	27.9 µM	17.9 µM	37.1 µM
COC(=O)[C@@H]1CCCN1C(=O)[C@H]1CCCN1C(=O)[C@@H](Cc1c[nH]c2ccccc12)NC(=S)Nc1cc(C(F)(F)F)cc(C(F)(F)F)c1	2.24 µM	4.63 µM	2620 nM	7.93 µM	1.01 µM	7.11 µM	3.25 µM	12.1 µM	2470 nM	6.65 µM	2.27 µM	5.71 µM	3.25 µM	11.3	2.11 µM	5.37 µM	1.95 µM	4.29 µM	2.41 µM	5.86 µM
COc1ccc(-c2ccccc2)cc1-c1c(Nc2cc(Cl)cc(Cl)c2O)c(=O)c1=O	1.7 µM	> 50 µM	957 nM	2.71 µM	0.726 µM	2.2 µM	1.56 µM	> 50 µM	1410 nM	> 50 µM	1.26 µM	3.69 µM	1.64 µM	> 50	1.3 µM	> 50 µM	1.72 µM	> 50 µM	1.72 µM	> 50 µM
O=C(/C=C\c1ccc2ccccc2n1)c1cc(Cl)ccc1O	5.81 µM	19.4 µM	2150 nM	5.83 µM	28.9 µM	> 100 µM	6.54 µM	20.7 µM	2880 nM	16 µM	10.3 µM	44.2 µM	2.16 µM	8.29	6.48 µM	> 100 µM	2.84 µM	11.7 µM	4.92 µM	17.2 µM
COc1ccc(C2=C(c3cc(OC)c(OC)c(OC)c3)C(=O)OC2)cc1OC	0.821 µM	> 100 µM	< 19.9 nM	0.961 µM	0.134 µM	21.3 µM	0.0465 µM	> 100 µM	< 18.9 nM	> 46.7 µM	< 0.01 µM	0.0217 µM	< 0.01 µM	> 100	< 0.0187 µM	> 100 µM	0.428 µM	> 49.4 µM	0.0231 µM	1.76 µM
C=C(C)[C@@H]1CC[C@]2(C(=O)NCCNCCNCCN)CC[C@]3(C)[C@H](CC[C@@H]4[C@@]5(C)CCC(=O)C(C)(C)[C@@H]5CC[C@]43C)[C@@H]12	7.47 µM	14.1 µM	6780 nM	22 µM	42.6 µM	> 50 µM	7.91 µM	16.6 µM	8720 nM	18.5 µM	9.42 µM	18.3 µM	9.65 µM	27.8	7.38 µM	15.5 µM	8.72 µM	16.6 µM	8.38 µM	19 µM
COc1cc2c(cc1OCCCN1CCN(c3cc(=O)oc4c(C)c(OC)ccc34)CC1)N=C[C@@H]1CCCN1C2=O	0.935 µM	> 100 µM	214 nM	1.32 µM	2.02 µM	3.96 µM	1.64 µM	10.3 µM	126 nM	1.93 µM	2.49 µM	> 30.4 µM	0.122 µM	1.36	0.787 µM	> 39.7 µM	0.826 µM	6.87 µM	1.24 µM	2.69 µM
CC(C)=CC1CC(C)C2(CCC3(C)CC4C(C(=O)CC4(C)O)/C(C=O)=C\CC32)O1 (centres undefined)	–	0.267 µM	–	0.0613 µM	–	0.979 µM	–	0.274 µM	–	0.097 µM	–	0.515 µM	–	0.0422	–	0.684 µM	–	0.182 µM	–	0.311 µM
C[C@@H]1COC(Nc2ccc3ncnc(Nc4ccc(OCc5nccs5)c(Cl)c4)c3c2)=N1	3.19 µM and 3.26 µM	> 10 µM and 19.3 µM	3290 nM and 2560 nM	> 10 µM and 11.1 µM	3.02 µM and 0.342 µM	> 10 µM and 6.25 µM	6.8 µM and 7.18 µM	> 10 µM and 20.7 µM	237 nM and 490 nM	> 10 µM and 4.65 µM	4.9 µM and 4.54 µM	> 10 µM and 18.6 µM	3.55 µM and 3.46 µM	> 80.9	4.97 µM and 5.73 µM	> 10 µM and 24 µM	3.73 µM and 4.31 µM	> 10 µM and 17 µM	3.16 µM and 4.12 µM	> 10 µM and 16.9 µM
COc1ccc2c(c1)[C@@]1(C)CCC3c4ccc(O)cc4CCC3C1C2 (some centres undefined)	17.6 µM	39.7 µM	14800 nM	39.8 µM	18.2 µM	33.3 µM	22.5 µM	37.2 µM	16400 nM	37.6 µM	17.3 µM	33.8 µM	12.8 µM	45.8	15.1 µM	30.8 µM	11 µM	24.2 µM	18.9 µM	33.5 µM
O=[N+]([O-])c1ccc(N=Nc2c(O)[nH]c3ccccc23)cc1	–	36.4 µM	–	> 100 µM	–	39.5 µM	–	34 µM	–	34.6 µM	–	48.7 µM	–	> 80.1	–	> 100 µM	–	> 96.3 µM	–	> 100 µM
Oc1cc(Cl)ccc1Cc1ccc(Cl)cc1O	10.4 µM	23.2 µM	6010 nM	> 100 µM	17.4 µM	31.3 µM	11.7 µM	31.7 µM	3860 nM	15 µM	6.34 µM	24.6 µM	15.8 µM	> 100	13.2 µM	27.9 µM	5.84 µM	18.2 µM	13.5 µM	26.3 µM
O=C1OCC2=C1C(c1cccc(C(F)(F)F)c1)c1cc3c(cc1N2CCO)CCC3 (centres undefined)	0.195 µM	5.66 µM	239 nM	12.8 µM	0.0804 µM	0.397 µM	0.178 µM	7.74 µM	137 nM	1.35 µM	0.138 µM	6.21 µM	0.217 µM	45.4	0.17 µM	7.65 µM	0.271 µM	6.77 µM	0.159 µM	6.2 µM
COc1cc2ncn(-c3cc(OCc4ccccc4S(C)(=O)=O)c(C#N)s3)c2cc1OC	> 25 µM	> 25 µM	> 25000 nM	> 25 µM	> 25 µM	> 25 µM	> 10.8 µM	> 20.8 µM	> 25000 nM	> 25 µM	> 25 µM	> 25 µM	> 25 µM	> 25	> 25 µM	> 25 µM	> 25 µM	> 25 µM	> 25 µM	> 25 µM
Cc1cn2c(=O)n(c1=O)Cc1ccccc1C2	> 100 µM	> 100 µM	28300 nM	> 100 µM	35.1 µM	> 100 µM	> 100 µM	> 100 µM	43400 nM	> 100 µM	> 100 µM	> 100 µM	50.6 µM	> 100	35.1 µM	> 100 µM	32 µM	> 100 µM	> 100 µM	> 100 µM
Oc1ccc(CN(Cc2ccc(C(F)(F)F)cc2)Cc2ccc(O)c3ncccc23)c2cccnc12	0.0338 µM	> 100 µM	27.8 nM	> 100 µM	0.0409 µM	97.5 µM	0.0319 µM	> 34.6 µM	21.8 nM	0.588 µM	0.0182 µM	> 100 µM	0.0314 µM	> 100	< 0.01 µM	> 100 µM	0.0381 µM	15.1 µM	0.0326 µM	2.17 µM
COc1cc(-c2n/c(=C\c3c(O)[nH]c4ccccc34)cc3c2=Nc2ccccc2-3)cc(OC)c1OC	1.12 µM	> 100 µM	3090 nM	> 26.4 µM	0.854 µM	6.25 µM	0.536 µM	> 100 µM	247 nM	0.664 µM	0.666 µM	> 38.4 µM	1.12 µM	> 100	0.363 µM	> 23.2 µM	0.552 µM	> 100 µM	0.785 µM	4.26 µM
COc1ccc2c(c1)C(=O)c1c-2n(CCCN2CCOCC2)c(=O)c2cc([N+](=O)[O-])ccc12	< 0.01 µM	0.0106 µM	< 10 nM	0.147 µM	< 0.01 µM	0.117 µM	< 0.01 µM	0.364 µM	< 10 nM	–	< 0.01 µM	–	< 0.01 µM	–	< 0.01 µM	> 100 µM	< 0.01 µM	0.0127 µM	< 0.01 µM	< 0.01 µM
Cc1ccc2[nH]c(C(=O)NN3C(=O)C(C)SC34CCCCC4C)c(-c3ccccc3)c2c1 (centres undefined)	21.7 µM	50.7 µM	21400 nM	64 µM	15 µM	32 µM	20.2 µM	37.7 µM	2400 nM	16.7 µM	17.8 µM	35.5 µM	21.7 µM	73	23.1 µM	> 100 µM	18.9 µM	35.4 µM	20.2 µM	38.8 µM
O=[N+]([O-])c1cccc(-c2cc(-c3cc(Br)ccc3O)[nH]n2)c1	3.44 µM	12.3 µM	1470 nM	4.75 µM	1.86 µM	8.63 µM	–	–	1490 nM	3.66 µM	–	–	3.94 µM	19.9	1.42 µM	7.05 µM	2.73 µM	8.62 µM	2.08 µM	5.03 µM

Source: PubChem BioAssay (NCI)
